Test results published in US20210403435A1, “HERBICIDAL COMPOUNDS” (SYNGENTA CROP PROTECTION AG, priority 2018, published 2021).

Legend:
Assay in all cases: Post-emergence efficacy, glasshouse, evaluated after 13 days
Type in all cases: in vivo
[1] = system: Amaranthus palmeri (AMAPA); details: Amaranthus palmeri, 312 h; post-emergence application, 500 g/Ha, evaluated after 13 days; read-out: Control of weed species AMAPA (100=total damage to plant; 0=no damage to plant)
Method: (§1) Seeds of a variety of test species were sown in standard soil in pots. After cultivation for 14 days (post-emergence) under controlled conditions in a glasshouse (at 24/16° C., day/night; 14 hours light; 65% humidity), the plants were sprayed with an aqueous spray solution derived from the dissolution of the technical active ingredient formula (I) in a small amount of acetone and a special solvent and emulsifier mixture referred to as IF50 (11.12% Emulsogen EL360 TM+44.44% N-methylpyrrolidone+44.44% Dowanol DPM glycol ether), to create a 50 g/l solution which was then diluted to required concentration using 0.25% or 1% Empicol ESC70 (Sodium lauryl ether sulphate)+1% ammonium sulphate as diluent.
(§2) The test plants were then grown in a glasshouse under controlled conditions (at 24/16° C., day/night; 14 hours light; 65% humidity) and watered twice daily. After 13 days the test was evaluated (100=total damage to plant; 0=no damage to plant).
(§3) Ipomoea hederacea (IPOHE), Euphorbia heterophylla (EPHHL), Chenopodium album (CHEAL), Amaranthus palmeri (AMAPA), Lolium perenne (LOLPE), Digitaria sanguinalis (DIGSA), Eleusine indica (ELEIN), Echinochloa crus-galli (ECHCG), Setaria faberi (SETFA)

[2] = system: Chenopodium album (CHEAL); details: Chenopodium album, 312 h; post-emergence application, 500 g/Ha, evaluated after 13 days; read-out: Control of weed species CHEAL (100=total damage to plant; 0=no damage to plant)
Method: as §1, §2, §3

[3] = system: Digitaria sanguinalis (DIGSA); details: Digitaria sanguinalis, 312 h; post-emergence application, 500 g/Ha, evaluated after 13 days; read-out: Control of weed species DIGSA (100=total damage to plant; 0=no damage to plant)
Method: as §1, §2, §3

[4] = system: Echinochloa crus-galli (ECHCG); details: Echinochloa crus-galli, 312 h; post-emergence application, 500 g/Ha, evaluated after 13 days; read-out: Control of weed species ECHCG (100=total damage to plant; 0=no damage to plant)
Method: as §1, §2, §3

Eleusine indica (ELEIN) = details: Eleusine indica, 312 h; post-emergence application, 500 g/Ha, evaluated after 13 days; read-out: Control of weed species ELEIN (100=total damage to plant; 0=no damage to plant)
Method: as §1, §2, §3

[5] = system: Euphorbia heterophylla (EPHHL); details: Euphorbia heterophylla, 312 h; post-emergence application, 500 g/Ha, evaluated after 13 days; read-out: Control of weed species EPHHL (100=total damage to plant; 0=no damage to plant)
Method: as §1, §2, §3

[6] = system: Ipomoea hederacea (IPOHE); details: Ipomoea hederacea, 312 h; post-emergence application, 500 g/Ha, evaluated after 13 days; read-out: Control of weed species IPOHE (100=total damage to plant; 0=no damage to plant)
Method: as §1, §2, §3

Lolium perenne (LOLPE) = details: Lolium perenne, 312 h; post-emergence application, 500 g/Ha, evaluated after 13 days; read-out: Control of weed species LOLPE (100=total damage to plant; 0=no damage to plant)
Method: as §1, §2, §3

Setaria faberi (SETFA) = details: Setaria faberi, 312 h; post-emergence application, 500 g/Ha, evaluated after 13 days; read-out: Control of weed species SETFA (100=total damage to plant; 0=no damage to plant)
Method: as §1, §2, §3

Structure (SMILES)	pest or weed control at 500 g/ha [1]	pest or weed control at 500 g/ha [2]	pest or weed control at 500 g/ha [3]	pest or weed control at 500 g/ha [4]	pest or weed control at 500 g/ha (Eleusine indica (ELEIN))	pest or weed control at 500 g/ha [5]	pest or weed control at 500 g/ha [6]	pest or weed control at 500 g/ha (Lolium perenne (LOLPE))	pest or weed control at 500 g/ha (Setaria faberi (SETFA))
O=C(O)CC[n+]1ccc(C(=O)NC2CC2(F)F)cn1 (stereo not drawn) [Compound A95]	100%	100%	100%	80%	100%	100%	60%	60%	100%
CN(C(=O)c1cc[n+](CCS(=O)(=O)O)nc1)c1ccccc1 [Compound A8]	100%	90%	20%	10%	40%	80%	30%	0%	20%
COC(=O)CC[n+]1ccc(C(=O)N(C)C)cn1 [Compound A2]	10%	10%	50%	30%	10%	50%	20%	20%	30%
O=C(O)CC[n+]1ccc(C(=O)NC2(C(F)(F)F)CC2)cn1 [Compound A94]	100%	100%	90%	80%	100%	90%	60%	80%	90%
CN(CCS(C)(=O)=O)C(=O)c1cc[n+](CCC(=O)O)nc1 [Compound A135]	80%	60%	90%	60%	40%	80%	30%	70%	100%
O=C(O)CC[n+]1ccc(C(=O)NCc2ccc(C(F)(F)F)cc2)cn1 [Compound A98]	90%	70%	60%	50%	90%	100%	20%	0%	30%
COC(=O)CC[n+]1ccc(C(=O)Nc2nccs2)cn1 [Compound A42]	20%	40%	10%	10%	10%	60%	10%	10%	10%
CN(C)C(=O)c1cc[n+](CCC(=O)O)nc1 [Compound A10]	100%	100%	90%	70%	80%	100%	60%	10%	90%
CCCCNC(=O)c1cc[n+](CCS(=O)(=O)[O-])nc1 [Compound A50]	60%	70%	60%	40%	10%	40%	60%	20%	60%
CC(CC(=O)O)[n+]1ccc(C(=O)NC2(C#N)CC2)cn1 (stereo not drawn) [Compound A62]	100%	90%	70%	80%	90%	100%	30%	70%	70%
O=C(O)CC[n+]1ccc(C(=O)Nc2ccc(F)cc2F)cn1 [Compound A106]	100%	50%	40%	10%	70%	60%	30%	50%	90%
CC(C)NC(=O)c1cc[n+](CCC(=O)[O-])nc1 [Compound A6]	100%	100%	90%	50%	70%	50%	60%	90%	90%
CCNC(=O)c1cc[n+](CCNS(=O)(=O)[O-])nc1 [Compound A81]	100%	100%	90%	100%	100%	100%	90%	90%	100%
CC(C)N(C(=O)c1cc[n+](CCC(=O)O)nc1)C(C)C [Compound A32]	50%	20%	20%	30%	10%	40%	10%	10%	30%
CCSCCNC(=O)c1cc[n+](CCC(=O)O)nc1 [Compound A120]	100%	80%	100%	50%	50%	90%	10%	40%	70%
COCCNC(=O)c1cc[n+](CCS(=O)(=O)[O-])nc1 [Compound A52]	100%	100%	90%	80%	20%	60%	60%	30%	80%
O=C(NCc1ccccc1)c1cc[n+](CCS(=O)(=O)[O-])nc1 [Compound A20]	100%	100%	60%	60%	80%	80%	50%	30%	90%
O=C(O)CC[n+]1ccc(C(=O)NCc2ccccc2)cn1 [Compound A21]	90%	90%	70%	90%	90%	90%	60%	40%	60%
